Key:
[1] = system: Escherichia coli (EC1061) NDM-1; assay: Biapenem MIC at various concentrations of Compound 5; type: cell-based; settings: EC1061 NDM-1
[2] = system: bacterial strains that expressed the beta-lactamase, NDM-1 and CMY-6; assay: Aztreonam/Tigemonam MIC at various concentrations of BLI (summary); type: cell-based
Protocol: MIC values for each bacterial strain were measured for each antimicrobial compound at various concentrations of each BLI.

[3] = system: bacterial strains that expressed the beta-lactamase, KPC-2 alone or in combination with NDM-1; assay: Biapenem MIC at various concentrations of Compound 5 (summary); type: cell-based
[4] = system: Klebsiella pneumonia (KPM1097) NDM-1, KPC-2; assay: Biapenem MIC at various concentrations of Compound 5; type: cell-based; settings: KPM1097 NDM-1, KPC-2
KP1004 KPC-2 = assay: Dose titration biapenem potentiation assay (MPC1); type: cell-based, Klebsiella pneumoniae; settings: biapenem 1 μg/mL
KP1008 KPC-2 = assay: Dose titration biapenem potentiation assay (MPC1); type: cell-based, Klebsiella pneumoniae; settings: biapenem 1 μg/mL
[5] = system: Klebsiella pneumonia (KP1004) KPC-2; assay: Biapenem MIC at various concentrations of Compound 5; type: cell-based; settings: KP1004 KPC-2
[6] = system: Klebsiella oxytoca KX1018 (KPC-2, SHV-40, OXY-1); assay: Checkerboard assay, Compound 5 with biapenem; type: cell-based; settings: KX1018
Text: (§1) The potentiation effect is observed by the reduction of the minimum inhibitory concentration of β-lactam antibiotics in the presence of β-lactamase inhibitors (BLIs). […] Methods for Dilution of Antimicrobial Susceptibility Tests for Bacteria That Grow Aerobically—Eighth Edition; Approved Standard. CLSI Document M07-A8, 2009). In this assay, multiple dilutions of two drugs, namely BLI and β-lactam (biapenem), are being tested, alone and in combination, at concentrations equal to, above and below their respective minimal inhibitory concentrations (MICs). BLIs are solubilized in 10% DMSO at 10 mg/mL. Stock solutions are further diluted, according to the needs of a particular assay, in Mueller Hinton Broth (MHB). Stock solution can be stored at −80° C.
(§2) The checkerboard (CB) assay is performed in microtiter plates. Biapenem is diluted in the x axis, each column containing a single concentration of antibiotic. BLIs are diluted in the y axis, each row containing an equal concentration of BLI. The result of these manipulations is that each well of the microtiter plate contains a unique combination of concentrations of the two agents. The assay is performed in MHB with a final bacterial inoculum of 5×10^5 CFU/mL (from an early-log phase culture). Microtiter plates are incubated during 20 h at 35° C. and are read using a microtiter plate reader (Molecular Devices) at 650 nm as well as visual observation using a microtiter plate reading mirror.

[7] = system: Klebsiella pneumoniae KP1004 (KPC-2); assay: Checkerboard assay, biapenem potentiation (MPC8); type: cell-based; settings: concentration to reduce biapenem MIC 8-fold
Protocol: (§3) The potency and spectrum of β-lactamase inhibitors was determined by assessing their antibiotic potentiation activity.
as §1, §2
(§4) Biapenem is a carbapenem β-lactam; only selected β-lactamases confer resistance to this class of antibiotics. Among them are serine carbapemenases that belong to class A and class D. Biapenem potentiation is studied in strains expressing various carbapenemases from these classes using CB assays. […] Cyclic boronic acid derivatives were capable of reducing biapenem MICs up to 1000-fold (Table 3).

[8] = system: Acinetobacter baumannii AB1054 (OXA-23); assay: Checkerboard assay, biapenem potentiation (MPC8); type: cell-based; settings: concentration to reduce biapenem MIC 8-fold
Protocol: as §3, §1, §2, §4

[9] = system: Acinetobacter baumannii AB1057 (OXA-58); assay: Checkerboard assay, biapenem potentiation (MPC8); type: cell-based; settings: concentration to reduce biapenem MIC 8-fold
Protocol: as §3, §1, §2, §4

[10] = system: strains expressing KPC alone or in combination with additional beta-lactamases; assay: Checkerboard assay, Compound 5 with biapenem (summary); type: cell-based; settings: highest concentration of Compound 5 10 mg/L
Text: as §1
as §2, with “The assay is performed in MHB with a final bacterial inoculum of 5×10^5 CFU/mL (from an early-log phase culture).” left out

[11] = system: E. coli EC1061 (NDM-1 CMY-6); assay: Aztreonam/Tigemonam MIC at various concentrations of BLI; type: cell-based; settings: EC1061
Protocol: MIC values for each bacterial strain were measured for each antimicrobial compound at various concentrations of each BLI. […]

O=C(O)C[C@@H]1CC[C@H](NC(=O)Cc2cccs2)B(O)O1 [Compound 5, 2-((3R,6S)-2-hydroxy-3-(2-(thiophen-2-yl)acetamido)-1,2-oxaborinan-6-yl)acetic acid]
Biapenem MIC ([1]; Compound 5 0.31 μg/ml): 0.13 µg/mL | Biapenem MIC ([1]; Compound 5 0.63 μg/ml): 0.13 µg/mL | Biapenem MIC ([1]; Compound 5 5 μg/ml): 0.125 µg/mL | Biapenem MIC ([1]; Compound 5 10 μg/ml): 0.06 µg/mL | Biapenem MIC ([1]; Compound 5 20 μg/ml): 0.06 µg/mL | effect on Aztreonam or Tigemonam MICs [2]: decreased the Aztreonam or Tigemonan MICs | effect on Biapenem MIC [3]: decreased the Biapenem MIC | Biapenem MIC ([4]; Compound 5 0.31 μg/ml): 2 µg/mL | Biapenem MIC ([4]; Compound 5 0.63 μg/ml): 1 µg/mL | Biapenem MIC ([4]; Compound 5 5 μg/ml): 1 µg/mL | Biapenem MIC ([4]; Compound 5 10 μg/ml): 1 µg/mL | Biapenem MIC ([4]; Compound 5 20 μg/ml): 1 µg/mL | Biapenem MIC ([4]; Compound 5 […]): 1 µg/mL | BPM MPC1 KP1004 KPC-2 (KP1004 KPC-2): X (X = MPC1 of less than 1 μg/mL.) | BPM MPC1 KP1008 KPC-2 (KP1008 KPC-2): X (X = MPC1 of less than 1 μg/mL.) | Biapenem MIC ([5]; Compound 5 0.31 μg/ml): 0.5 µg/mL | Biapenem MIC ([5]; Compound 5 0.63 μg/ml): 0.25 µg/mL | Biapenem MIC ([5]; Compound 5 5 μg/ml): 0.06 µg/mL | Biapenem MIC (μg/ml) ([5]; Compound 5 10 μg/ml): ≦0.03 μg/ml | Biapenem MIC (μg/ml) ([5]; Compound 5 20 μg/ml): ≦0.03 μg/ml | Biapenem MIC ([6]; Compound 5 0.31 mg/L): X (X = MIC of less than 0.5 mg/L.) | Biapenem MIC ([6]; Compound 5 0.625 mg/L): X (X = MIC of less than 0.5 mg/L.) | Biapenem MIC ([6]; Compound 5 5 mg/L): NG (NG = No Growth.) | Biapenem MIC ([6]; Compound 5 10 mg/L): NG (NG = No Growth.) | Biapenem MIC ([6]; Compound 5 […]): X (X = MIC of less than 0.5 mg/L.) | MPC8 [7]: X (X = MPC8 of less than 0.16 μg/mL.) | MPC8 [8]: Z (Z = MPC8 of greater than 1 μg/mL.) | MPC8 [9]: Z (Z = MPC8 of greater than 1 μg/mL.) | potentiation of biapenem [10]: significantly potentiate biapenem | Aztreonam MIC (μg/ml) in the presence of BLI ([11]; Compound 5 0.31 μg/ml): 4 µg/mL | Aztreonam MIC (μg/ml) in the presence of BLI ([11]; Compound 5 0.63 μg/ml): 4 µg/mL | Aztreonam MIC (μg/ml) in the presence of BLI ([11]; Compound 5 5 μg/ml): 0.5 µg/mL | Aztreonam MIC (μg/ml) in the presence of BLI ([11]; Compound 5 10 μg/ml): 0.5 µg/mL | Aztreonam MIC (μg/ml) in the presence of BLI ([11]; Compound 5 20 μg/ml): 0.5 µg/mL | Aztreonam MIC (μg/ml) in the presence of BLI ([11]; Compound 5 […]): 2 µg/mL

Reference: US20150119363A1, “METHODS OF TREATING BACTERIAL INFECTIONS” (Rampex Pharmaceuticals, Inc., priority 2012, published 2015)
